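All cell lines were grown in 96-well plates and treated with compound for 48 hours. TGI is the concentration that stops growth completely.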
What was measured:
Experiment in all cases: inhibition of tumour cell growth, NCI panel, 48 h
[1] = system: ACHN renal
[2] = system: SNB-19 CNS
[3] = system: TK-10 renal
[4] = system: NCI-H460 lung
[5] = system: IGROV1 ovarian
[6] = system: NCI/ADR-RES ovarian
[7] = system: M14 melanoma
[8] = system: K-562 leukemia
[9] = system: MCF7 breast
[10] = system: SF-295 CNS
[11] = system: LOX IMVI melanoma
[12] = system: SK-MEL-28 melanoma
[13] = system: OVCAR-4 ovarian
[14] = system: COLO 205 colon
[15] = system: DMS 114 small cell lung
[16] = system: 786-0 renal
[17] = system: HCT-15 colon
[18] = system: U251 CNS
[19] = system: UACC-257 melanoma
[20] = system: MDA-MB-435
[21] = system: OVCAR-8 ovarian
[22] = system: T-47D breast
[23] = system: HOP-62 NSCLC
[24] = system: CCRF-CEM leukemia
[25] = system: BT-549 breast
[26] = system: OVCAR-5 ovarian
[27] = system: SR leukemia
[28] = system: XF 498 CNS
[29] = system: M19-MEL melanoma
[30] = system: KM20L2 colon
[31] = system: SW-620 colon
[32] = system: SK-MEL-2 melanoma
[33] = system: HOP-92 NSCLC
[34] = system: A498 renal
[35] = system: PC-3 prostate
[36] = system: UACC-62 melanoma
[37] = system: MDA-N
[38] = system: HOP-18 NSCLC
[39] = system: DMS 273 small cell lung
[40] = system: DU-145 prostate
[41] = system: SNB-75 CNS
[42] = system: HT29 colon
[43] = system: NCI-H226 lung
[44] = system: HL-60(TB) leukemia
[45] = system: SK-OV-3 ovarian
[46] = system: SN12C renal
[47] = system: UO-31 renal
[48] = system: RXF 393 renal
[49] = system: HCT-116 colon
[50] = system: SF-268 CNS
[51] = system: HCC-2998 colon
[52] = system: NCI-H23 lung
[53] = system: MOLT-4 leukemia
[54] = system: LXFL 529 NSCLC
[55] = system: KM12 colon
[56] = system: A549 NSCLC
[57] = system: MALME-3M melanoma
[58] = system: EKVX NSCLC
[59] = system: SNB-78 CNS
[60] = system: OVCAR-3 ovarian
[61] = system: HS 578T breast
[62] = system: SK-MEL-5 melanoma
[63] = system: MDA-MB-231 breast
[64] = system: NCI-H522 lung
[65] = system: RPMI-8226 leukemia
[66] = system: SF-539 CNS

Work on `COc1ccc(NC(=O)CSc2nnc(-c3ccc(N=Cc4ccc(Cl)cc4)cc3)o2)cc1` yielded a TGI [1] greater than 86.9 µM, a TGI [2] greater than 100 µM and a TGI [3] greater than 100 µM. For the same molecule, the TGI [4] was greater than 100 µM, the TGI [5] was greater than 100 µM and the TGI [6] was greater than 100 µM. For the same molecule, the TGI [7] was greater than 96.3 µM, the TGI [8] was greater than 100 µM and the TGI [9] was greater than 100 µM. For the same molecule, the TGI [10] was greater than 100 µM, the TGI [11] was 31.9 µM and the TGI [12] was greater than 100 µM. It also gave a TGI [13] greater than 100 µM, a TGI [14] of 44.9 µM and a TGI [15] of 80.1 µM. The TGI [16] was greater than 100 µM, the TGI [17] was 29.1 µM and the TGI [18] was greater than 100 µM. For the same molecule, the TGI [19] was greater than 96.7 µM, the TGI [20] was greater than 100 µM and the TGI [21] was greater than 100 µM. The TGI [22] was greater than 100 µM, the TGI [23] was greater than 88.6 µM and the TGI [24] was greater than 82.7 µM. For the same molecule, the TGI [25] was greater than 100 µM, the TGI [26] was greater than 100 µM and the TGI [27] was 61.2 µM. For the same molecule, the TGI [28] was 59.2 µM, the TGI [29] was 68.1 µM and the TGI [30] was greater than 100 µM. It also gave a TGI [31] greater than 100 µM, a TGI [32] of 45.8 µM and a TGI [33] of 71.4 µM. For the same molecule, the TGI [34] was greater than 100 µM, the TGI [35] was greater than 100 µM and the TGI [36] was greater than 100 µM. The TGI [37] was greater than 100 µM, the TGI [38] was 68.1 µM and the TGI [39] was 79.6 µM. The TGI [40] was greater than 100 µM, the TGI [41] was greater than 86.7 µM and the TGI [42] was greater than 100 µM. It also gave a TGI [43] greater than 76.3 µM, a TGI [44] greater than 48.8 µM and a TGI [45] greater than 100 µM. It also gave a TGI [46] of 56.8 µM, a TGI [47] greater than 100 µM and a TGI [48] greater than 100 µM. The TGI [49] was greater than 49.5 µM, the TGI [50] was greater than 64.7 µM and the TGI [51] was greater than 100 µM. For the same molecule, the TGI [52] was greater than 93.5 µM, the TGI [53] was greater than 70.2 µM and the TGI [54] was greater than 100 µM. For the same molecule, the TGI [55] was greater than 80.9 µM, the TGI [56] was greater than 100 µM and the TGI [57] was greater than 100 µM. The TGI [58] was greater than 100 µM, the TGI [59] was 77.3 µM and the TGI [60] was 73.2 µM. It also gave a TGI [61] greater than 100 µM, a TGI [62] greater than 100 µM and a TGI [63] greater than 100 µM. For the same molecule, the TGI [64] was 96.6 µM and the TGI [65] was greater than 80.7 µM.
`CCOC(=O)COc1ccc(OC)c2c1C(=O)CCC2` showed a TGI [1] greater than 100 µM, a TGI [2] greater than 100 µM and a TGI [3] greater than 100 µM. The TGI [4] was greater than 100 µM, the TGI [5] was greater than 100 µM and the TGI [7] was greater than 100 µM. For the same molecule, the TGI [8] was greater than 100 µM, the TGI [10] was greater than 100 µM and the TGI [11] was greater than 100 µM. The TGI [12] was greater than 100 µM, the TGI [13] was greater than 100 µM and the TGI [14] was greater than 100 µM. For the same molecule, the TGI [15] was greater than 100 µM, the TGI [17] was greater than 100 µM and the TGI [18] was greater than 100 µM. For the same molecule, the TGI [19] was greater than 100 µM, the TGI [21] was greater than 100 µM and the TGI [24] was greater than 100 µM. For the same molecule, the TGI [28] was greater than 100 µM, the TGI [29] was greater than 100 µM and the TGI [30] was greater than 100 µM. It also gave a TGI [31] greater than 100 µM, a TGI [34] greater than 100 µM and a TGI [36] greater than 100 µM. For the same molecule, the TGI [38] was greater than 100 µM, the TGI [39] was greater than 100 µM and the TGI [41] was greater than 100 µM. The TGI [42] was greater than 100 µM, the TGI [44] was greater than 100 µM and the TGI [45] was greater than 100 µM. The TGI [46] was greater than 100 µM, the TGI [48] was greater than 100 µM and the TGI [49] was greater than 100 µM. For the same molecule, the TGI [52] was greater than 100 µM, the TGI [53] was greater than 100 µM and the TGI [54] was greater than 100 µM. The TGI [56] was greater than 100 µM, the TGI [66] was greater than 100 µM and the TGI [58] was greater than 100 µM. It also gave a TGI [59] greater than 100 µM, a TGI [60] greater than 100 µM and a TGI [62] greater than 100 µM. The TGI [65] was greater than 100 µM.
